In patent US20170334899A1, “AMINO-SUBSTITUTED ISOTHIAZOLES” (Bayer Pharma Aktiengesellschaft, priority 2014, published 2017):

What was measured:
Assay type in all cases: cell-based
HeLa = assay: Proliferation assay (crystal violet), HeLa; conditions: Homo sapiens, HeLa, 96 h, HeLa cells; 4 days incubation; crystal violet staining; read-out: IC50 inhibition of proliferation, HeLa
Description: Cultivated tumor cells (cells were ordered from ATCC, except HeLa-MaTu and HeLa-MaTu-ADR, which were ordered from EPO-GmbH, Berlin) were plated at a density of 1000 to 5000 cells/well, depending on the growth rate of the respective cell line, in a 96-well multititer plate in 200 μL of their respective growth medium supplemented 10% fetal calf serum. After 24 hours, the cells of one plate (zero-point plate) were stained with crystal violet (see below), while the medium of the other plates was replaced by fresh culture medium (200 μl), to which the test substances were added in various concentrations (0 μM, as well as in the range of 0.001-10 μM; the final concentration of the solvent dimethyl sulfoxide was 0.5%). The cells were incubated for 4 days in the presence of test substances. Cell proliferation was determined by staining the cells with crystal violet: the cells were fixed by adding 20 μl/measuring point of an 11% glutaric aldehyde solution for 15 minutes at room temperature. After three washing cycles of the fixed cells with water, the plates were dried at room temperature. The cells were stained by adding 100 μl/measuring point of a 0.1% crystal violet solution (pH 3.0). After three washing cycles of the stained cells with water, the plates were dried at room temperature. The dye was dissolved by adding 100 μl/measuring point of a 10% acetic acid solution. Absorbtion was determined by photometry at a wavelength of 595 nm. The change of cell number, in percent, was calculated by normalization of the measured values to the aborbtion values of the zero-point plate (=0%) and the absorbtion of the untreated (0 μm) cells (=100%). The IC50 values were determined by means of a 4 parameter fit.

[1] = test system: human cervical tumor cell line HeLa (ATCC CCL-2); assay: SAC-Formation - Paclitaxel-Induced Assay; conditions: Homo sapiens, HeLa, 24 h, HeLa cells, paclitaxel 0.05 μM, test range 0.005 μM-20 μM, read-out: IC50 [mol/l] SAC-Formation - Paclitaxel-Induced Assay
Description: (§1) The spindle assembly checkpoint assures the proper segregation of chromosomes during mitosis. Upon entry into mitosis, chromosomes begin to condensate which is accompanied by the phosphorylation of histone H3 on serine 10. Dephosphorylation of histone H3 on serine 10 begins in anaphase and ends at early telophase. Accordingly, phosphorylation of histone H3 on serine 10 can be utilized as a marker of cells in mitosis. Nocodazole is a microtubule destabilizing substance. Paclitaxel is a microtubule stabilizing compound. Thus, nocodazole as well as paclitaxel interfere with microtubule dynamics and mobilize the spindle assembly checkpoint. […] The mitotic breakthrough can be detected by the decrease of cells with phosphorylation of histone H3 on serine 10. This decline is used as a marker to determine the capability of compounds of the present invention to induce a mitotic breakthrough. The typical morphological alteration of nuclei with a prematurely completed mitosis after SAC-inhibition can be monitored via image analysis routines supporting those findings.
(§2) The nocodazole and paclitaxel variations were used to focus on compounds that are capable of inhibiting a SAC induced by both microtubule destabilization as well as microtubule stabilization. When SAC inducing agents and compounds are given simultaneously inhibitors that effectively block the SAC during formation or abrogation are identified. When cells are incubated with a SAC inducing agent and the SAC interfering compound is given after a defined time, inhibitors are identified that effectively block SAC abrogation.
Cultivated cells of the human cervical tumor cell line HeLa (ATCC CCL-2) were plated at a density of 1000 cells/well in a 1536-well microtiter plate in 2 μl PAA
(§3) Ham's F12 Medium supplemented with 1% (v/v) glutamine, 1% (v/v) penicillin, 1% (v/v) streptomycin and 10% (v/v) fetal calf serum. After incubation overnight at 37° C., 10 μl/well paclitaxel at a final concentration of 0.05 μM were added to cells. Test compounds solubilized in dimethyl sulfoxide (DMSO) were added at various concentrations (0 μM, as well as in the range of 0.005 μM -20 μM; the final concentration of the solvent DMSO was 0.5% (v/v)). Cells were incubated for 24 h at 37° C. in the presence of test compounds in combination with paclitaxel. Thereafter, cells were fixed in 4% (v/v) paraformaldehyde in phosphate buffered saline (PBS) at 4° C. overnight then permeabilized in 0.1% (v/v) Triton X™ 100 in PBS at room temperature for 20 min and blocked in 0.5% (v/v) bovine serum albumin (BSA) in PBS at room temperature for 15 min. After washing with PBS, 5 μl/well antibody solution (anti-phospho-histone H3 clone 3H10, FITC; Millipore, Cat#16-222; 1:1000 dilution) was added to cells, which were incubated for 2 h at room temperature. Afterwards, cells were washed with PBS and 5 μl/well solution of HOECHST 33342 dye (5 μg/ml) was added to cells and cells were incubated 15 min at room temperature in the dark. Cells were washed twice with PBS then covered with PBS and stored at 4° C. until analysis. Images were acquired with a PERKIN ELMER OPERA™ High-Content Analysis reader. Images were analyzed with image analysis software MetaXpress™ from Molecular devices utilizing the Mitotic Index application module. In this assay both labels HOECHST 33342 and phosphorylated Histone H3 on serine 10 were measured. HOECHST 33342 labels the DNA and is used to count the cell number. The staining of phosphorylated Histone H3 on serine 10 determines the number of mitotic cells. […] Otherwise cells were arrested at G2/M phase of the cell cycle progression. The raw assay data were further analyzed by four-parametric hill equation using Genedata's Assay Analyzer and Condoseo software.

[2] = test system: human cervical tumor cell line HeLa (ATCC CCL-2); assay: SAC-Formation - Nocodazole-Induced Assay; conditions: Homo sapiens, HeLa, 24 h, HeLa cells, nocodazole 0.1 μg/ml together with test compound, decrease of mitotic cells (phospho-histone H3 Ser10)
Description: as §1, §2
as §3, with “Cultivated cells of the human cervical tumor cell line HeLa (ATCC CCL-2) were plated at a density of 1000 cells/well in a 1536-well microtiter plate in 2 μl PAA Ham's” for “Ham's”, “nocodazole” for “paclitaxel”, “0.1 μg/ml” for “0.05 μM”, “μM-20” for “μM -20”, “nocodazole.” for “paclitaxel.”

Compound | IC50 (HeLa) [µM] | IC50 [1] [µM] | IC50 [2] [µM]
Cc1nsc(Nc2cnc3ccccc3n2)c1C(=O)Nc1cccc(C(=O)NCC(F)(F)F)c1 [Example 64, 3-Methyl-5-(quinoxalin-2-ylamino)-N-{3-[(2,2,2-trifluoro-ethyl)carbamoyl]phenyl}-1,2-thiazole-4-carboxamide] | 2.7 | 1.3 | 0.32
CC(=O)N[C@H]1CCN(C(=O)c2cccc(NC(=O)c3c(C)nsc3Nc3cnc4ccccc4n3)c2)C1 [Example 86, N-(3-{[(3S)-3-(acetylamino)pyrrolidin-1-yl]carbonyl}-phenyl)-3-methyl-5-(quinoxalin-2-ylamino)-1,2-thiazole-4-carboxamide] | 10 | 13 | 3.2
COc1cc(CNC(=O)c2cccc(NC(=O)c3c(C)nsc3Nc3cnc4ccccc4n3)c2)cc(OC)c1OC [Example 69, 3-Methyl-5-(quinoxalin-2-ylamino)-N-{3-[(3,4,5-trimethoxy-benzyl)carbamoyl]phenyl}-1,2-thiazole-4-carboxamide] | 4 | 2.6 | 0.87
Cc1nsc(Nc2cnc3ccccc3n2)c1C(=O)Nc1cccc(C(=O)NCCCN2CCCC2)c1 [Example 81, 3-Methyl-N-(3-{[3-(pyrrolidin-1-yl)propyl]carbamoyl}-phenyl)-5-(quinoxalin-2-ylamino)-1,2-thiazole-4-carboxamide] | 10 | 11 | 10
Cc1nsc(Nc2cnc3ccccc3n2)c1C(=O)Nc1cccc(C(=O)N2CCN(c3ccccc3F)CC2)c1 [Example 78, N-(3-{[4-(2-Fluorophenyl)piperazin-1-yl]carbonyl}phenyl)-3-methyl-5-(quinoxalin-2-ylamino)-1,2-thiazole-4-carboxamide] | 7 | 2 | 0.47
Cc1nsc(Nc2cnc3ccccc3n2)c1C(=O)Nc1cccc(C(=O)N2CCC(N3CCCCC3)CC2)c1 [Example 61, N-[3-(1,4′-Bipiperidin-1′-ylcarbonyl)phenyl]-3-methyl-5-(quinoxalin-2-ylamino)-1,2-thiazole-4-carboxamide] | 10 | 0.28 | 0.031
Cc1nsc(Nc2cnc3ccccc3n2)c1C(=O)Nc1cccc(C(=O)Nc2ccc(N3CCOCC3)cc2)c1 [Example 65, 3-Methyl-N-(3-{[4-(morpholin-4-yl)phenyl]carbamoyl}phenyl)-5-(quinoxalin-2-ylamino)-1,2-thiazole-4-carboxamide] | 8.2 | 7.4 | 0.41
CC(=O)NCCNC(=O)c1cccc(NC(=O)c2c(C)nsc2Nc2cnc3ccccc3n2)c1 [Example 66, N-(3-{[2-(Acetylamino)ethyl]carbamoyl}phenyl)-3-methyl-5-(quinoxalin-2-ylamino)-1,2-thiazole-4-carboxamide] | 10 | 20 | 0.72
Cc1nsc(Nc2cnc3ccccc3n2)c1C(=O)Nc1cccc(C(=O)N(C)CCN(C)C)c1 [Example 58, N-(3-{[2-(Dimethylamino)ethyl](methyl)carbamoyl}phenyl)-3-methyl-5-(quinoxalin-2-ylamino)-1,2-thiazole-4-carboxamide] | 10 | 7.3 | 3

Continued, values first:

IC50 (HeLa) [µM] | IC50 [1] [µM] | IC50 [2] [µM] | Compound
4.5 | 1.5 | 0.39 | Cc1nsc(Nc2cnc3ccccc3n2)c1C(=O)Nc1cccc(C(=O)N2CCN(c3cccc(F)c3)CC2)c1 [Example 87, N-(3-{[4-(3-Fluorophenyl)piperazin-1-yl]carbonyl}phenyl)-3-methyl-5-(quinoxalin-2-ylamino)-1,2-thiazole-4-carboxamide]
9.9 | 2.7 | 0.71 | Cc1nsc(Nc2cnc3ccccc3n2)c1C(=O)Nc1cccc(C(=O)N2CCN(Cc3ccc(F)cc3)CC2)c1 [Example 93, N-(3-{[4-(4-Fluorobenzyl)piperazin-1-yl]carbonyl}phenyl)-3-methyl-5-(quinoxalin-2-ylamino)-1,2-thiazole-4-carboxamide]
10 | 10 | 0.068 | Cc1nsc(Nc2cnc3ccccc3n2)c1C(=O)Nc1cccc(C(=O)NCCCN2CCOCC2)c1 [Example 95, 3-Methyl-N-(3-{[3-(morpholin-4-yl)propyl]carbamoyl}-phenyl)-5-(quinoxalin-2-ylamino)-1,2-thiazole-4-carboxamide]
10 | 8.4 | 0.94 | Cc1nsc(Nc2cnc3ccccc3n2)c1C(=O)Nc1cccc(C(=O)N2CCN(CCc3ccccn3)CC2)c1 [Example 94, 3-Methyl-N-[3-({4-[2-(pyridin-2-yl)ethyl]piperazin-1-yl}-carbonyl)phenyl]-5-(quinoxalin-2-ylamino)-1,2-thiazole-4-carboxamide]
